From patent publication USRE37770E1, “Treatment of skin conditions by use of PPARα activators” (The Regents of the University of California, priority 1997, dated 2002)

How the values were obtained:
[1] = test system: full-thickness flank skin from the fetal rats; test: Transepidermal water loss (TEWL) of fetal rat skin explants in organ culture (barrier function); assay type: cell-based, Sprague-Dawley rats; details: for effect on TEWL / barrier function: 50 μM; for EC50: Rattus norvegicus, read-out: concentration of half-maximal effect on barrier development (TEWL); for EC50 / concentration of maximal effect on barrier development (TEWL): dose response, FIGS. 4a-4c
Procedure: Timed pregnant Sprague-Dawley rats (plug date=day 0) were obtained from Simonsen (Gilroy, Calif., USA) and fetuses were delivered prematurely on day 17. Transepidermal water loss (TEWL) was measured in excised full-thickness flank skin from the fetal rats after various times in culture. The skin explants were placed dermis-side down onto collagen membrane inserts (3μ pore size) in medium M-199 (serum-free), and submerged, and the lateral edges and dermal surface were sealed with petrolatum, such that water loss occurred only through the epidermal surface. Explant samples were weighed hourly, at ambient temperature (24±3° C.) and humidity (40±5%), over 6 hours using a Cahn balance (sensitivity 0.001 mg). TEWL levels are reported as milligrams of water lost per square millimeter of epidermal surface per hour. Fatty acids and clofibrate (p-chlorophenoxyisobutyric acid) were added to the medium bound to 0.5% (weight/volume) bovine serum albumin (BSA). Isoprenoids and oxysterols were added in ethanol (≦0.1%) and juvenile hormone III was added as a dimethylsulfoxide (DMSO) solution (≦0.1%). Control explants were incubated in the presence of the appropriate vehicle (≦0.1% DMSO or ethanol, and/or ≦0.5% BSA). Skin explants from gestational day 17 rats were incubated in the presence of either various activators or vehicle, and transepidermal water loss was measured after two days. The activators and the concentrations at which they were used were as follows: […]

[2] = test system: Skin explants from gestational day 17 rats; test: Light and electron microscopy of fetal rat skin explants (epidermal maturation); assay type: cell-based; details: 48 hours
Procedure: Samples for light microscopy were fixed in modified Karnovsky's solution, plastic-embedded, and 0.5 μm sections were stained with toluidine. Samples for electron microscopy were minced into 1 mm^3 pieces, fixed in modified Karnovsky's fixative, and processed. Sections were stained with uranyl acetate and lead citrate, post-fixed in ruthenium tetroxide, and examined using a Zeiss 10A electron microscope.
Explants incubated in various media woe examined by light microscopy. The incubation di included control medium (containing no activators) and various media individually containing 300 μM clofibrate, 100 μM juvenile hormone III, 300 μM oleic acid, 30 μM linoleic acid, 50 μM farnesol, and various concentrations of 9-cis-retinoic acid, all-trans-retinoic acid, and 1,25-dihydroxy vitamin D3.
Observations were then made of the ultrastructural maturation of the outer epidermis in explants that had been incubated in the various media and then post-fixed in ruthenium tetroxide. Media identical to those of the preceding paragraph were used, excluding the retinoic acid-containing and 1,25-dihydroxy vitamin D3-containing media.

involucrin mRNA = test: Involucrin mRNA in keratinocytes by Northern Blot; assay type: cell-based, Human; details: low calcium (0.03 mM), 24 hours, 10 μM
Procedure: (§1) Human keratinocyte cells were incubated in culture containing calcium at a concentration of 0.03 mM Ca^++ (a level that is too low to induce differentiation). Also included in the culture medium were clofibrate at 400 μM or ETYA at 10 μM and 20 μM, while separate cell cultures were maintained as controls with neither clofibrate nor ETYA. The production of mRNA for both involucrin and transglutaminase was measured at intervals over a 48-hour time period (0, 6, 12, 24, and 48 hours) by Northern Blot analysis. In each case, the lighter bars represent the control cells and the darker bars the cells incubated in the clofibrate-containing medium. The degree of mRNA generated is expressed as a percent of the control at zero hours.
(§2) Human epidermis was isolated from newborn foreskins and keratinocytes were plated in serum-free keratinocyte growth medium (“KGM”; Clonetics, San Diego, Calif. USA), using conventional techniques. Cells were treated with either the test compounds in vehicle or vehicle alone (<0.1% ethanol) for 24 or 48 hours. The test compounds were obtained from Sigma Chemical Co. (St. Louis. Mo. USA) and were stored as 15 mM stock solutions at −20° C. Mevalonate was solubilized in sterile water.
(§3) Total RNA was isolated by using TRIZOL (Sigma Chemical Co.), following the manufacturer's protocol. Ethanol-precipitate RNA pellets were suspended in sterile, diethylpyrocarbonate (DEPC)-treated water, and RNA was quantified by absorbance at 260 nm using the 260/280 nm ratio as an index of purity. RNA (15 μg per sample) was size fractionated through a 1% agarose gel containing 2.2 M formaldehyde. RNA integrity was visualized following acridine orange staining of the gel following electrophoresis. The RNA was transfered to a nylon membrane that was subsequently baked at 80° C. for 2 hours. Blots were hybridized with the appropriate ^32p-labeled probe overnight at 65° C. Washes were then performed in a solution containing 0.1% SSC and 0.1% sodium dedecyl sulfate (SDS) for 20 minutes at room temperature, followed by a 20-minute wash at 65° C. Autoradiography was performed at −70° C. Blots were probed with β-actin to confirm equal loading. Appropriate bands were quantified by densitometry.
(§4) Northern blot analyses were performed on keratinocytes maintained in low calcium (0.03 mM) and incubated for 24 hours in the presence of vehicle alone (<0.1% ethanol) or vehicle containing 25-hydroxycholesterol (10 μM), 22(R)-hydroxycholesterol (10 μM) cholesterol (10 μM), or mevalonate (500 μM) (individually). The mRNA levels of involucrin (“INV”) and transglutaminase (“TG'ase”) are shown in the bar graph of FIG. 14a, the INV indicated by clear bars and the TG'ase by shaded bars, both with error limits shown.

transglutaminase mRNA = test: Transglutaminase mRNA in keratinocytes by Northern Blot; assay type: cell-based, Human; details: low calcium (0.03 mM), 24 hours, 10 μM
Procedure: as §1, §2, §3, §4

involucrin protein = test: Involucrin protein level in keratinocytes by Western Blot; assay type: cell-based, Human; details: 0 to 15 μM, 0.03 mM Ca++, 24 hours
Procedure: Measurements of the level of the involucrin protein itself were performed in the culture medium by Western Blot. Various incubations were performed, in media containing clofibrate at concentrations ranging from 0 (vehicle only) to 400 μM and calcium ion at both 0.03 mM and 1.2 mM. The results are shown in FIG. 9a for tests with calcium ion at 0.03 mM, and in FIG. 9b for tests with calcium ion at 1.2 mM. In these figures, the protein contents are expressed as percents of the respective measurements taken from media incubated for the same period of time but in the absence of clofibrate.
The procedures of Example 8 were followed, and measurements were taken on the involucrin protein levels from cells incubated at various concentrations of farnesol and juvenile hormone III ranging from 0 (vehicle only) to 15 μM, in media containing 0.03 mM and 1.2 mM calcium ion, for 24 hours. The results are shown in FIG. 10 for farnesol and FIG. 11 for juvenile hormone III, in 0.03 mM Ca^++.
Protein concentration was assessed by protein electrophoresis and Western blotting. Cells were lysed is 2% SDS and the lysate sonicated. Protein determinations were made by use of a Bicinchoninic add protein assay (Pierce Chemical Company, Rockford, Ill. USA). Following protein determination, equal amounts at protein (50 μg) were separated by electrophoresis an 7.5% polyacrylamide gels and electroblotted onto polyvinylidene […] membranes (0.2-μ, obtained from Bio-Rad Laboratories Hercules, Calif., USA). Involucrin protein was detected by incubation over-night at 4° C. C. with a polyclonal rabbit anti-human involucrin antibody (1:1000 dilution). The involucrin-specific bands on the autoradiograms were quantitated by densitometry by densitometry. Transglutaminase protein expression was measured in a similar mmaner, using stacking, sample and running buffers containing 4 M urea, and the gels following electrophoresis were washed in 4 M urea, 25 mM TRIS-HCl, pH 7.4, 7.5 mM NaCl, 0.1 mM dithiothreitol (DTT), and 2 mM ethylenediamine tetraacetic acid for 90 minutes prior to electoblotting, allowing the transglutaminase to be detected by antibody. Specific bands on the autoradiograms were quantified by densitometry.

[3] = test system: Normal human keratinocytes; test: Cornified envelope formation (35S incorporation) in keratinocytes; assay type: cell-based; details: 10 μM, 0.03 mM calcium, 48-hour

Structure (SMILES)	effect on TEWL / barrier function ([1]; two days)	EC50 [1] [µM]	concentration of maximal effect on barrier development (TEWL) [1]	also measured
CC(C)=CCC/C(C)=C/CC/C(C)=C/CC/C=C(\C)CC/C=C(\C)CCC=C(C)C [squalene]	neither mevalonate at 200 μM, 25-hydroxy cholesterol at 50 μM), squalene at 50 μM, geranylgeraniol at 50 μM, cis-farnesol at 50 μM, nor nerolidol at 100 μM significantly affected barrier function	–	–	–
CCCCC/C=C\C/C=C\CCCCCCCC(=O)O [linoleic acid]	–	~12.5	approximately 30 μM	effect on TEWL ([1]; explants incubated in 300 μM for two days, p<0.005, n=8): markedly decreased the TEWL; light microscopy of the epidermis ([2]; 30 μM): had both a multi-layered stratum granulosum and a stratum corneum
C=CC(C)(O)CCC=C(C)CCC=C(C)C (centres unmarked) [nerolidol]	–	–	–	effect on TEWL / barrier formation ([1]; 100 μM, two days): neither mevalonate at 200 μM, 25-hydroxy cholesterol at 50 μM), squalene at 50 μM, geranylgeraniol at 50 μM, cis-farnesol at 50 μM, nor nerolidol at 100 μM significantly affected barrier function
CC(C)CC[C@H](O)[C@@H](C)[C@H]1CC[C@H]2[C@@H]3CC=C4C[C@@H](O)CC[C@]4(C)[C@H]3CC[C@]12C [22(S)-hydroxycholesterol]	–	–	–	involucrin (INV) mRNA level compared to the vehicle alone (involucrin mRNA): No effect; transglutaminase (TG'ase) mRNA level compared to the vehicle alone (transglutaminase mRNA): No effect
CC(C)=CCC/C(C)=C/CC/C(C)=C/CC/C(C)=C/CO [geranylgeraniol]	neither mevalonate at 200 μM, 25-hydroxy cholesterol at 50 μM), squalene at 50 μM, geranylgeraniol at 50 μM, cis-farnesol at 50 μM, nor nerolidol at 100 μM significantly affected barrier function	–	–	–
CC(C)=CCC/C(C)=C\CC/C(C)=C\CO [cis-farnesol]	neither mevalonate at 200 μM, 25-hydroxy cholesterol at 50 μM), squalene at 50 μM, geranylgeraniol at 50 μM, cis-farnesol at 50 μM, nor nerolidol at 100 μM significantly affected barrier function	–	–	–
CCCCC[C@H](O)/C=C/[C@H]1C(=O)C=C[C@@H]1C/C=C\CCCC(=O)O [prostaglandin J2]	–	–	–	effect on TEWL / barrier development ([1]; 10 μM, two days): had no effect
CCCCCCCC/C=C\CCCCCCCC(=O)O [oleic acid]	–	~250	approximately 500 μM	light microscopy of the epidermis ([2]; 300 μM): had both a multi-layered stratum granulosum and a stratum corneum
CC(C)=CCC/C(C)=C/CC/C(C)=C/CO [farnesol, 3,7,11,trimethyl-2,6,10-dodecatrienol]	markedly decreased the TEWL	~20	approximately 50 μM	light microscopy of the epidermis ([2]; 50 μM): had both a multi-layered stratum granulosum and a stratum corneum; involucrin protein content (involucrin protein): substantial increases in involucrin protein content; rate of cornified envelope formation [3]: substantial increases in the rate of cornified envelope formation
